Consider 26 molecules from patent publication US11332459B2 (TEIJIN PHARMA LIMITED, priority 2017, dated 2022).

This assay deals with T1, human TRPC6 (Homo sapiens, UniProt Q9Y210).
T1 construct: expressed in transfected cells
T1 sequence (Q9Y210 1-931): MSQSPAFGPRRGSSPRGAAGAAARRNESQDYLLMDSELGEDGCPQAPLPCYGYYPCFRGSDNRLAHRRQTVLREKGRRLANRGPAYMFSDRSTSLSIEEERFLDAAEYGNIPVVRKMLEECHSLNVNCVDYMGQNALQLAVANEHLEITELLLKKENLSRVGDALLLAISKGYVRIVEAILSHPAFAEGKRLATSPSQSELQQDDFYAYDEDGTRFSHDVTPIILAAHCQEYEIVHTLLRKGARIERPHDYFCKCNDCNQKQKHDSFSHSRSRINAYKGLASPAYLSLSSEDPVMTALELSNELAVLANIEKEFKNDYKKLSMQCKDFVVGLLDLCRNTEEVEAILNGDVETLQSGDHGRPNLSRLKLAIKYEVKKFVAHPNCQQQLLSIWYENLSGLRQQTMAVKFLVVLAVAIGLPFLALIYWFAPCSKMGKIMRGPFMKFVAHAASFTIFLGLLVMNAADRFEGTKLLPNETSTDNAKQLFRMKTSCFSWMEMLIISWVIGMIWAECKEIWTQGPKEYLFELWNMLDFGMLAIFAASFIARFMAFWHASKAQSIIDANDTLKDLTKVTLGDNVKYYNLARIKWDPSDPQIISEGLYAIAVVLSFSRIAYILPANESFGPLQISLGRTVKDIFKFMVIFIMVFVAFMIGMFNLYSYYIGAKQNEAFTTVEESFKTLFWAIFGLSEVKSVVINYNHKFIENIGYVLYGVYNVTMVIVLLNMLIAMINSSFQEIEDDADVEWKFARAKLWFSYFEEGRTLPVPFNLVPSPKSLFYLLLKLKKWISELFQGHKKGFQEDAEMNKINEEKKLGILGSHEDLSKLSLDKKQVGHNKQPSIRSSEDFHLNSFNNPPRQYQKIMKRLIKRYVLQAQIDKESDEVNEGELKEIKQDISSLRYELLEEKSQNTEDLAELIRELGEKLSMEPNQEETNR
The assay is described as follows: TRPC6 calcium flux assay (FLIPR, OAG-stimulated calcium influx). The format is cell-based. The note with it: HEK293 cells stably transfected with human TRPC6, read-out: hTRPC6 Potency. In outline: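 HEK293 cells stably expressing human TRPC6, loaded with calcium dye 90–120 min at RT, then given compound for 25 min before OAG (50 uM final, 0.5% DMSO) in HEPES buffer pH 7.2 with 2 mM CaCl2. Background-subtracted FLIPR peak over 180 s normalized to OAG vs buffer; IC50 from dose plot.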
A general note: A change in cytosolic calcium serves as a functional read-out for many receptors and channels.

On to `N[C@@H]1CN(c2nc3cc(F)ccc3n2Cc2nc(C(F)(F)F)no2)CC[C@H]1F` [Example 584, (3R,4R)-4-fluoro-1-(5-fluoro-1-((3-(trifluoromethyl)-1,2,4-oxadiazol-5-yl)methyl)-1H-benzo[d]imidazol-2-yl)piperidin-3-amine], for which the IC50 was 546 nM. Then `Cc1nc(-c2ccccc2)sc1Cn1c(N2CC[C@@H](F)[C@H](N)C2)nc2ccc(F)cc21` [Example 585, (3R,4R)-4-fluoro-1-(6-fluoro-1-((4-methyl-2-phenylthiazol-5-yl)methyl)-1H-benzo[d]imidazol-2-yl)piperidin-3-amine], with 579 nM; and `Cc1nnc(Cn2c(N3CC[C@@H](F)[C@H](N)C3)nc3cc(F)c(F)cc32)n1C` [Example 586, (3R,4R)-1-(1-((4,5-dimethyl-4H-1,2,4-triazol-3-yl)methyl)-5,6-difluoro-1H-benzo[d]imidazol-2-yl)-4-fluoropiperidin-3-amine], with 747 nM.

With `N[C@@H]1CN(c2nc3cc(F)ccc3n2Cc2nnc(C(F)F)s2)CC[C@H]1F` [Example 587, (3R,4R)-1-(1-((5-(difluoromethyl)-1,3,4-thiadiazol-2-yl)methyl)-5-fluoro-1H-benzo[d]imidazol-2-yl)-4-fluoropiperidin-3-amine], the IC50 is 765 nM. Then `Cc1nnc(Cn2c(N3CCC(F)(F)[C@H](N)C3)nc3ccc(F)cc32)s1` [Example 588, (R)-4,4-difluoro-1-(6-fluoro-1-((5-methyl-1,3,4-thiadiazol-2-yl)methyl)-1H-benzo[d]imidazol-2-yl)piperidin-3-amine], with 811 nM. As to `Cc1nc(C)c(Cn2c(N3CC[C@@H](F)[C@H](N)C3)nc3ccc(F)cc32)s1` [Example 589, (3R,4R)-1-(1-((2,4-dimethylthiazol-5-yl)methyl)-6-fluoro-1H-benzo[d]imidazol-2-yl)-4-fluoropiperidin-3-amine], the IC50 worked out at 1010 nM. Consider `Cc1nnc(Cn2c(N3CC[C@@H](F)[C@H](N)C3)nc3cc(F)cnc32)s1` [Example 590, (3R,4R)-4-fluoro-1-(6-fluoro-3-((5-methyl-1,3,4-thiadiazol-2-yl)methyl)-3H-imidazo[4,5-b]pyridin-2-yl)piperidin-3-amine], for which the IC50 came to 1440 nM.

`CN(CC(F)(F)F)C(=O)Cn1c(N2CC[C@@H](F)[C@H](N)C2)nc2cc(F)cc(F)c21` [Example 591, 2-(2-((3R,4R)-3-amino-4-fluoropiperidin-1-yl)-5,7-difluoro-1H-benzo[d]imidazol-1-yl)-N-methyl-N-(2,2,2-trifluoroethyl)acetamide]: the IC50 was found to be 1590 nM. The value for `CN(C)C(=O)Cn1c(N2CC[C@@H](F)[C@H](N)C2)nc2cc(C(F)(F)F)ccc21` [Example 592, 2-(2-((3R,4R)-3-amino-4-fluoropiperidin-1-yl)-5-(trifluoromethyl)-1H-benzo[d]imidazol-1-yl)-N,N-dimethylacetamide] was 1730 nM. As to `Cc1nc(-c2ccccc2)sc1Cn1c(N2CC[C@@H](F)[C@H](N)C2)nc2cc(F)ccc21` [Example 593, (3R,4R)-4-fluoro-1-(5-fluoro-1-((4-methyl-2-phenylthiazol-5-yl)methyl)-1H-benzo[d]imidazol-2-yl)piperidin-3-amine], the IC50 amounted to 2120 nM. Then `CN(C)C(=O)Cn1c(N2CC[C@@H](F)[C@H](N)C2)nc2cc(F)cc(F)c21` [Example 594, 2-(2-((3R,4R)-3-amino-4-fluoropiperidin-1-yl)-5,7-difluoro-1H-benzo[d]imidazol-1-yl)-N,N-dimethylacetamide], with over 3750 nM. Then `CS(=O)(=O)c1ccc(Cn2c(N3CC[C@@H](F)[C@H](N)C3)nc3cc(F)cc(F)c32)nc1` [Example 595, (3R,4R)-1-(5,7-difluoro-1-((5-(methylsulfonyl)pyridin-2-yl)methyl)-1H-benzo[d]imidazol-2-yl)-4-fluoropiperidin-3-amine], with over 3750 nM. The value for `Cc1nc(C)c(Cn2c(N3CC[C@@H](F)[C@H](N)C3)nc3cc(F)ccc32)s1` [Example 596, (3R,4R)-1-(1-((2,4-dimethylthiazol-5-yl)methyl)-5-fluoro-1H-benzo[d]imidazol-2-yl)-4-fluoropiperidin-3-amine] was over 3750 nM; that for `Cc1nnc(Cn2c(N3CCC(F)(F)[C@H](N)C3)nc3cc(F)ccc32)s1` [Example 597, (R)-4,4-difluoro-1-(5-fluoro-1-((5-methyl-1,3,4-thiadiazol-2-yl)methyl)-1H-benzo[d]imidazol-2-yl)piperidin-3-amine] was over 3750 nM.

Turning to `N[C@@H]1CN(c2nc3cc(F)cc(F)c3n2Cc2nnc(C(F)F)s2)CC[C@H]1F` [Example 598, (3R,4R)-1-(1-((5-(difluoromethyl)-1,3,4-thiadiazol-2-yl)methyl)-5,7-difluoro-1H-benzo[d]imidazol-2-yl)-4-fluoropiperidin-3-amine], the IC50 was over 3750 nM.

As for `Cc1nnc(Cn2c(N3CC[C@@H](F)[C@H](N)C3)nc3cc(F)cc(F)c32)s1` [Example 599, (3R,4R)-1-(5,7-difluoro-1-((5-methyl-1,3,4-thiadiazol-2-yl)methyl)-1H-benzo[d]imidazal-2-yl)-4-fluoropiperidin-3-amine], the IC50 was over 3750 nM. Then `CC1CCN1C(=O)Cn1c(N2CC[C@@H](F)[C@H](N)C2)nc2cc(F)c(F)cc21` (stereo partly drawn) [Example 600, 2-(2-((3R,4R)-3-amino-4-fluoropiperidin-1-yl)-5,6-difluoro-1H-benzo[d]imidazol-1-yl)-1-(2-methylazetidin-1-yl)ethanone], with 5.38 nM. Then `CN(CC(F)F)C(=O)Cn1c(N2CC[C@@H](F)[C@H](N)C2)nc2cc(F)c(F)cc21` [Example 601, 2-(2-((3R,4R)-3-amino-4-fluoropiperidin-1-yl)-5,6-difluoro-1H-benzo[d]imidazol-1-yl)-N-(2,2-difluoroethyl)-N-methylacetamide], with 5.56 nM; and `CN(C(=O)Cn1c(N2CC[C@@H](F)[C@H](N)C2)nc2cc(F)c(F)cc21)C1CC1` [Example 602, 2-(2-((3R,4R)-3-amino-4-fluoropiperidin-1-yl)-5,6-difluoro-1H-benzo[d]imidazol-1-yl)-N-cyclopropyl-N-methylacetamide], with 5.75 nM.

As to `C[C@H](C#N)N(C)C(=O)Cn1c(N2CC[C@@H](F)[C@H](N)C2)nc2cc(F)c(F)cc21` [Example 603, 2-(2-((3R,4R)-3-amino-4-fluoropiperidin-1-yl)-5,6-difluoro-1H-benzo[d]imidazol-1-yl)-N-((R)-1-cyanoethyl)-N-methylacetamide], the IC50 worked out at 6.73 nM. As for `C[C@H](c1ccccn1)N(C)C(=O)Cn1c(N2CC[C@@H](F)[C@H](N)C2)nc2cc(F)c(F)cc21` [Example 604], the IC50 is 7.78 nM. Then `CCN(C)C(=O)Cn1c(N2CC[C@@H](F)[C@H](N)C2)nc2cc(F)c(F)cc21` [Example 605, 2-(2-((3R,4R)-3-amino-4-fluoropiperidin-1-yl)-5,6-difluoro-1H-benzo[d]imidazol-1-yl)-N-ethyl-N-methylacetamide], with 7.9 nM; and `CN(CCF)C(=O)Cn1c(N2CC[C@@H](F)[C@H](N)C2)nc2cc(F)c(F)cc21` [Example 606, 2-(2-((3R,4R)-3-amino-4-fluoropiperidin-1-yl)-5,6-difluoro-1H-benzo[d]imidazol-1-yl)-N-(2-fluoroethyl)-N-methylacetamide], with 8.06 nM. For `N[C@@H]1CN(c2nc3cc(F)c(F)cc3n2CC(=O)N2C[C@H]3C[C@H]3C2)CC[C@H]1F` [Example 607, 2-(2-((3R,4R)-3-amino-4-fluoropiperidin-1-yl)-5,6-difluoro-1H-benzo[d]imidazol-1-yl)-1-((1R,5S)-3-azabicyclo[3.1.0]hexan-3-yl)ethanone], the IC50 was 14.3 nM. The value for `C[C@@H](C#N)N(C)C(=O)Cn1c(N2CC[C@@H](F)[C@H](N)C2)nc2cc(F)c(F)cc21` [Example 610, 2-(2-((3R,4R)-3-amino-4-fluoropiperidin-1-yl)-5,6-difluoro-1H-benzo[d]imidazol-1-yl)-N-((S)-1-cyanoethyl)-N-methylacetamide] was 21.2 nM. The value for `CN(C(=O)Cn1c(N2CC[C@@H](F)[C@H](N)C2)nc2cc(F)c(F)cc21)C1CCOC1` (stereo partly drawn) [Example 611, 2-(2-((3R,4R)-3-amino-4-fluoropiperidin-1-yl)-5,6-difluoro-1H-benzo[d]imidazol-1-yl)-N-methyl-N-(tetrahydrofuran-3-yl)acetamide] was 22.4 nM.
